Test results as given in patent publication US5438052A, “Cephalosporin derivatives” (Hoffmann-La Roche Inc., priority 1991, dated 1995).
Converted amounts (≈) assume the structure as drawn. Read-outs that look alike come from different tables or passages of the source.

Legend:
P. aeruginosa 799/61 = assay: Minimum inhibitory concentration in vitro, agar dilution method; type: cell-based; conditions: Pseudomonas aeruginosa
Text: (§1) 1. Minimum Inhibitory Concentration in vitro
(§2) The activities ascertained, minimum inhibitory concentration (MIC) in μg/ml, are compiled in Table 1 hereinafter: […]

P. aeruginosa BA = assay: as above; type: cell-based; conditions: Pseudomonas aeruginosa
Text: as §1, §2

P. aeruginosa 799/WT = assay: as above; type: cell-based; conditions: Pseudomonas aeruginosa
Text: as §1, §2

P. mirabilis 2117 = assay: as above; type: cell-based; conditions: Proteus mirabilis
Text: as §1, §2

P. aeruginosa MK1184 = assay: as above; type: cell-based; conditions: Pseudomonas aeruginosa
Text: as §1, §2

E. cloacae P99 = assay: as above; type: cell-based; conditions: Enterobacter cloacae
Text: as §1, §2

S. pyogenes 15 = assay: as above; type: cell-based; conditions: Streptococcus pyogenes
Text: as §1, §2

E. coli 25922 [1] = assay: as above; type: cell-based; conditions: Escherichia coli
Text: as §1, §2

S. marcescens 69438 = assay: as above; type: cell-based; conditions: Serratia marcescens
Text: as §1, §2

C. freundii 902 = assay: as above; type: cell-based; conditions: Citrobacter freundii
Text: as §1, §2

K. oxytoca 1082 = assay: as above; type: cell-based; conditions: Klebsiella oxytoca
Text: as §1, §2

S. aureus 6538 = assay: as above; type: cell-based; conditions: Staphylococcus aureus
Text: as §1, §2

E. cloacae 908SSi = assay: as above; type: cell-based; conditions: Enterobacter cloacae
Text: as §1, §2

P. aeruginosa 27853 = assay: as above; type: cell-based; conditions: Pseudomonas aeruginosa
Text: as §1, §2

K. pneumoniae 418 = assay: as above; type: cell-based; conditions: Klebsiella pneumoniae
Text: as §1, §2

E. cloacae 908R = assay: as above; type: cell-based; conditions: Enterobacter cloacae
Text: as §1, §2

P. vulgaris 1028 = assay: as above; type: cell-based; conditions: Proteus vulgaris
Text: as §1, §2

E. coli 25922 [2] = assay: Experimental systemic septicaemia in the mouse; type: in vivo; conditions: 96 h
Outline: (§3)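 Albino mice (16-20 g) infected i.p. with overnight culture at about 5-100× the 48 h LD50; groups of 5. Compounds given s.c. in 2% Tween 80 at 1 and 3 h post-infection (P. aeruginosa also at 5 h). ED50 (mg/kg s.c.) by Probit from 4-day survival.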

[3] = system: Pseudomonas aeruginosa BA; assay: Experimental systemic septicaemia in the mouse; type: in vivo; conditions: sc, 96 h
Outline: as §3

S. aureus Schoch = assay: Experimental systemic septicaemia in the mouse; type: in vivo; conditions: Staphylococcus aureus, sc, 96 h
Outline: as §3

E. aerogenes CF153 = assay: Minimum inhibitory concentration in vitro, agar dilution method; type: cell-based; conditions: Klebsiella aerogenes; E. aerogenes CF153, agar dilution; read-out: MIC
Text: as §1, §2

S. pneumoniae BA = assay: as above; type: cell-based; conditions: Streptococcus pneumoniae; S. pneumoniae BA, agar dilution; read-out: MIC
Text: as §1, §2

[4] = P. aeruginosa 799/61, agar dilution, read-out: MIC
[5] = P. aeruginosa BA, agar dilution, read-out: MIC
[6] = P. aeruginosa 799/WT, agar dilution, read-out: MIC
[7] = P. mirabilis 2117, agar dilution, read-out: MIC
[8] = P. aeruginosa MK1184, agar dilution, read-out: MIC
[9] = S. pyogenes 15, agar dilution, read-out: MIC
[10] = E. coli 25922, agar dilution, read-out: MIC
[11] = S. marcescens 69438, agar dilution, read-out: MIC
[12] = C. freundii 902, agar dilution, read-out: MIC
[13] = K. oxytoca 1082, agar dilution, read-out: MIC
[14] = S. aureus 6538, agar dilution, read-out: MIC
[15] = E. cloacae 908SSi, agar dilution, read-out: MIC
[16] = P. aeruginosa 27853, agar dilution, read-out: MIC
[17] = K. pneumoniae 418, agar dilution, read-out: MIC
[18] = E. cloacae 908R, agar dilution, read-out: MIC
[19] = P. vulgaris 1028, agar dilution, read-out: MIC
[20] = Escherichia coli, sc, E. coli 25922, albino mice, s.c. 1 and 3 hours after infection, survival after 4 days, read-out: ED50
[21] = P. aeruginosa BA, albino mice, s.c. 1, 3 and 5 hours after infection, survival after 4 days, read-out: ED50
[22] = S. aureus Schoch, albino mice, s.c. 1 and 3 hours after infection, survival after 4 days, read-out: ED50

SMILES	MIC (E. cloacae P99)	MIC (P. aeruginosa 799/61; [4])	MIC (P. aeruginosa BA; [5])	MIC (P. aeruginosa 799/WT; [6])	MIC (P. mirabilis 2117; [7])	MIC (P. aeruginosa MK1184; [8])	MIC (S. pyogenes 15; [9])	MIC (E. coli 25922 [1]; [10])	MIC (S. marcescens 69438; [11])	MIC (C. freundii 902; [12])	MIC (K. oxytoca 1082; [13])	MIC (S. aureus 6538; [14])	MIC (E. cloacae 908SSi; [15])	MIC (P. aeruginosa 27853; [16])	MIC (K. pneumoniae 418; [17])	MIC (E. cloacae 908R; [18])	MIC (P. vulgaris 1028; [19])	ED50 (E. coli 25922 [2]; [20])	ED50 [3, 21]	ED50 (S. aureus Schoch; [22])	further results
Cc1cc(SCC2=C(C(=O)[O-])N3C(=O)[C@@H](NC(=O)/C(=N\OCc4ccc(O)c(O)c4)c4csc(N)n4)[C@H]3SC2)n2nc(COC(=O)c3ccc(O)c(O)c3)nc2n1.[Na+] [Example 8, (6R,7R)-7-[(Z)-2-(2-amino-4-thiazolyl)-2-[[(3,4-dihydroxybenzyl)oxy]imino]acetamido]-3-[[[2-[[(3,4-dihydroxybenzoyl)oxy]methyl]-5-methyl-s-triazolo[1,5-a]pyrimidin-7-yl]thio]methyl]-8-oxo-5-thia-1-azabicyclo[4.2.0]oct-2-ene-2-carboxylic acid sodium salt (1:1)]	8 µg/mL																				MIC (P. aeruginosa 799/61; 799/61): < 0.1 µg/mL; MIC (P. aeruginosa BA): < 0.1 µg/mL; MIC (P. aeruginosa 799/WT; 799/WT): < 0.1 µg/mL; MIC (P. mirabilis 2117; 2117): < 0.1 µg/mL; MIC (P. aeruginosa MK1184; MK1184): < 0.1 µg/mL; MIC (S. pyogenes 15; 15): 1 µg/mL; MIC (E. coli 25922 [1]; 25922): < 0.1 µg/mL; MIC (S. marcescens 69438; 69438): 0.12 µg/mL; MIC (C. freundii 902; 902): < 0.1 µg/mL; MIC (K. oxytoca 1082; 1082): < 0.1 µg/mL; MIC (S. aureus 6538; 6538): 4 µg/mL; MIC (E. cloacae 908SSi; 908SSI): 2 µg/mL; MIC (P. aeruginosa 27853; 27853): 0.12 µg/mL; MIC (K. pneumoniae 418; 418): < 0.1 µg/mL; MIC (E. cloacae 908R; 908R): 0.25 µg/mL; MIC (P. vulgaris 1028; 1028): < 0.1 µg/mL; ED50 (E. coli 25922 [2]; Escherichia coli, 25922, sc): < 0.1 mg/kg; ED50 [3]: 0.45 mg/kg; ED50 (S. aureus Schoch): 2 mg/kg
Cc1ncc(-c2ccc(O)c(O)c2)c(SCC2=C(C(=O)O)N3C(=O)[C@@H](NC(=O)/C(=N\OC(C)(C)C(=O)NO)c4csc(N)n4)[C@H]3SC2)n1 [Example 19b]	8 µg/mL (≈ 11.2 µM)	< 0.1 µg/mL	0.5 µg/mL (≈ 0.698 µM)	0.25 µg/mL (≈ 0.349 µM)	0.25 µg/mL (≈ 0.349 µM)	8 µg/mL (≈ 11.2 µM)	0.25 µg/mL (≈ 0.349 µM)	< 0.1 µg/mL	< 0.1 µg/mL	< 0.1 µg/mL	0.5 µg/mL (≈ 0.698 µM)	16 µg/mL (≈ 22.3 µM)	2 µg/mL (≈ 2.79 µM)	0.25 µg/mL (≈ 0.349 µM)	< 0.1 µg/mL	2 µg/mL (≈ 2.79 µM)	< 0.1 µg/mL	0.78 mg/kg	> 3 mg/kg		MIC (E. aerogenes CF153): < 0.1 µg/mL
Cc1cc(SCC2=C(C(=O)O)N3C(=O)[C@@H](NC(=O)/C(=N\OC(C)(C)C(=O)NNC(=O)c4ccc(O)c(O)c4)c4csc(N)n4)[C@H]3SC2)n2nc(CS(=O)(=O)c3ccc(O)c(O)c3)nc2n1 [Example 44]		< 0.1 µg/mL	< 0.1 µg/mL	0.12 µg/mL (≈ 0.124 µM)	0.25 µg/mL (≈ 0.258 µM)	0.12 µg/mL (≈ 0.124 µM)	8 µg/mL (≈ 8.25 µM)	< 0.1 µg/mL	0.25 µg/mL (≈ 0.258 µM)	0.25 µg/mL (≈ 0.258 µM)	< 0.1 µg/mL	32 µg/mL (≈ 33 µM)	8 µg/mL (≈ 8.25 µM)	0.5 µg/mL (≈ 0.515 µM)	< 0.1 µg/mL	1 µg/mL (≈ 1.03 µM)	0.25 µg/mL (≈ 0.258 µM)	< 0.05 mg/kg	< 0.01 mg/kg	> 12 mg/kg	MIC (S. pneumoniae BA): 1 µg/mL (≈ 1.03 µM)
Cc1cc(SCC2=C(C(=O)O)N3C(=O)[C@@H](NC(=O)/C(=N\OCc4ccc(O)c(O)c4)c4csc(N)n4)[C@H]3SC2)n2nc(CNS(=O)(=O)c3ccc(O)c(O)c3)nc2n1 [Example 4, (6R,7R)-7-[(Z)-2-(2-amino-4-thiazolyl)-2-[[(3,4-dihydroxybenzyl)oxy]imino]acetamido]-3-[[[2-[(3,4-dihydroxybenzenesulphonamido)methyl]-5-methyl-s-triazolo[1,5-a]pyrimidin-7-yl]thio]methyl]-8-oxo-5-thia-1-azabicyclo[4.2.0]oct-2-ene-2carboxylic acid]	32 µg/mL (≈ 36.7 µM)	0.12 µg/mL (≈ 0.138 µM)	< 0.1 µg/mL	0.25 µg/mL (≈ 0.287 µM)	0.25 µg/mL (≈ 0.287 µM)	0.25 µg/mL (≈ 0.287 µM)	0.25 µg/mL (≈ 0.287 µM)	< 0.1 µg/mL	0.12 µg/mL (≈ 0.138 µM)	< 0.1 µg/mL	16 µg/mL (≈ 18.4 µM)	4 µg/mL (≈ 4.59 µM)	4 µg/mL (≈ 4.59 µM)	0.5 µg/mL (≈ 0.574 µM)	< 0.1 µg/mL	1 µg/mL (≈ 1.15 µM)	1 µg/mL (≈ 1.15 µM)	< 0.1 mg/kg	0.12 mg/kg	3.1 mg/kg	
